Structures can show the parent of a compound that is named as a salt.
Experiments:
lysozyme = biological target: T1, lysozyme (Gallus gallus, UniProt P00698); experiment: Photochemical labeling of lysozyme with pyridinium salts (General Procedure B, LC/MS); format: biochemical, chicken
T1 construct: Lysozyme (from chicken egg white, >40,000 units/mg of protein); purchased Sigma Aldrich; host or cells: chicken egg white
Protocol: (§1) General Procedure B: Photochemical Irradiation of Peptides and Proteins: To a 2 mL Pyrex LC/MS vial (Thermo model #03-391-39) were sequentially added solutions containing the desired biomolecule, glutathione (GSH), pyridinium salt, and ammonium acetate (NH4OAc). The resulting solution was diluted to a final volume of 500 μL and then sparged using nitrogen for a minimum of 30 minutes prior to irradiation. The actively sparging solution was then placed in an EvoluChem™ PhotoRedOx Box photoreactor that was equipped with a Kessil, PR160 427 nm LED Lamp and was then irradiated (100% lamp intensity) for the designated time at room temperature while maintaining active sparging. The resultant reaction mixture was then analyzed directly by LC/MS. Analysis of labeling outcomes using LC/MS was performed either by extracted ion chromatogram intensities (method A) or by integrating the area under the peaks associated with peptide content (method B). These values were totaled, and estimated percentages were assigned according to relative intensities of peaks or ion counts.
Labeling of Lysozyme with Pyridinium Salt 2a (Lysozyme-2a Conjugate). Labeling of lysozyme (14.3 kDa) with the pyridinium salt 2a was performed by following general procedure B using the following solutions: lysozyme (27 μL, 182 μM, 10 μM final concentration), pyridinium salt 2a (200 μL, 500 μM, 200 μM final concentration), NH4OAc (100 μL, 100 mM, pH=6.9, 20 mM final concentration), glutathione (15 μL, 10 mM, 300 μM final concentration), and water (158 μL) with a 100% intensity irradiation time of 60 minutes. The reaction mixture was analyzed directly by LC/MS using method A and was estimated to have proceeded in >95% conversion and a 10.9:1 mono:di labeled ratio and 10% glutathionylation of all unlabeled and labeled protein content was observed.
Labeling of Lysozyme with Pyridinium Salt 2b (Lysozyme-2b Conjugate). Labeling of lysozyme (14.3 kDa) with the pyridinium salt 2b was performed by following general procedure Busing the following solutions: lysozyme (19 μL, 262 μM, […]), 2b (181 μL, 554 μM, 200 μM final concentration), NH4OAc (50 μL, 200 mM, pH=6.9, 20 mM final concentration), glutathione (50 μL, 3 mM, 300 μM final concentration), and water (200 μL) with a 100% intensity irradiation time of 10 minutes. The reaction mixture was analyzed directly by LC/MS using method A and was estimated to have proceeded with 83% conversion. […]
Labeling of Lysozyme with Pyridinium Salt 2c (Lysozyme-2c Conjugate). […] The reaction mixture was analyzed directly by LC/MS using method A and was estimated to have proceeded with 85% conversion and a 3.7:1 mono:di labeled ratio and 10% glutathionylation of all protein content was observed. […]

Leuprolide = experiment: Photochemical labeling of leuprolide with pyridinium salt (General Procedure B, LC/MS); format: biochemical; conditions: 10 μM leuprolide, 100 μM pyridinium salt, 300 μM glutathione, 30 min
Protocol: as §1
Labeling of Leuprolide with Pyridinium Salt 2a (Leuprolide-2a Conjugate). […] The reaction mixture was analyzed directly by LC/MS using method B and was estimated to have proceeded with 91% conversion, a >20:1 mono:di labeled ratio, and 4% of +1 label+glutathionylation. […]

T1 sequence (P00698 19-147): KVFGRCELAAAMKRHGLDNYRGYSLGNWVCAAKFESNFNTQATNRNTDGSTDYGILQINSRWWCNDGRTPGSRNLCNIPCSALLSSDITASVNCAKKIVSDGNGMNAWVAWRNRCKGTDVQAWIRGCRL

| Compound | labeling rate compared to pyridinium salt 2a (lysozyme; lysozyme labeling) | Modified Trp (lysozyme; trypsin digest, MS-MS) | +1 label+glutathionylation (Leuprolide) [%] |
| --- | --- | --- | --- |
| COc1ccc2cc(-c3cc(C)[n+](N(C)C(=O)OCCCCC[C@H]4SC[C@H]5NC(=O)N[C@H]54)c(C)c3)ccc2c1 (stereo in doubt) [pyridinium salt 2b, 4-(6-methoxynaphthalen-2-yl)-2,6-dimethyl-1-(methyl(((5-((3aR,4R,6aS)-2-oxohexahydro-1H-thieno[3,4-d]imidazol-4-yl)pentyl)oxy)carbonyl)amino)pyridin-1-ium tetrafluoroborate] | much faster rate |  |  |
| COC(=O)N(C)[n+]1c(C)cc(-c2ccc3cc(OC)ccc3c2)cc1C [pyridinium salt 2a, 1-((methoxycarbonyl)(methyl)amino)-4-(6-methoxynapthalen-2-yl)-2,6-dimethylpyridin-1-ium tetrafluoroborate] |  | Trp-62 | 4 |

Reference: patent publication US20240262845A1, “PYRIDINIUM SALTS, METHODS OF MAKING, AND METHODS OF USE” (UNIVERSITY OF WYOMING, priority 2023, published 2024)
